# According to the supplement of paper PMC10307832:
# Tests used:
# Test in all cases: relative viability (nuclei count vs DMSO), 5 days (fraction); higher = more cells survive
# Etoposide + Lapatinib = compound: COc1cc([C@@H]2c3cc4c(cc3[C@@H](O[C@@H]3O[C@@H]5CO[C@@H](C)O[C@H]5[C@H](O)[C@H]3O)[C@H]3COC(=O)[C@H]23)OCO4)cc(OC)c1O [Etoposide] + CS(=O)(=O)CCNCc1ccc(-c2ccc3ncnc(Nc4ccc(OCc5cccc(F)c5)c(Cl)c4)c3c2)o1 [Lapatinib] (partner 2 µM)
# Method in brief: (§1)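 The day after seeding in 1536-well plates, lung cancer cell lines were treated by pin tool with a single drug, or with a fixed anchor-drug dose together with five library-drug doses (not always all listed) in √10 steps. After 5 days, a combined fix-and-stain solution (final 0.05% Triton X-100, 1% formaldehyde, 1 ug/ml Hoechst) was added. Nuclei counted on 4× images gave relative viability as treated counts over vehicle counts, reported as the median of duplicate plates.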
# Bleomycin + Lapatinib = compound: CC1=C(N=C(N=C1N)[C@H](CC(=O)N)NC[C@@H](C(=O)N)N)C(=O)N[C@@H]([C@H](C2=CN=CN2)OC3C(C(C(C(O3)CO)O)O)OC4C(C(C(C(O4)CO)O)OC(=O)N)O)C(=O)N[C@H](C)[C@H]([C@H](C)C(=O)N[C@@H]([C@@H](C)O)C(=O)NCCC5=NC(=CS5)C6=NC(=CS6)C(=O)NCCC[S+](C)C)O [Bleomycin] + CS(=O)(=O)CCNCc1ccc(-c2ccc3ncnc(Nc4ccc(OCc5cccc(F)c5)c(Cl)c4)c3c2)o1 [Lapatinib] (partner 2 µM); conditions: main component drawn
# Method in brief: as §1
# Etoposide + Alpelisib = compound: COc1cc([C@@H]2c3cc4c(cc3[C@@H](O[C@@H]3O[C@@H]5CO[C@@H](C)O[C@H]5[C@H](O)[C@H]3O)[C@H]3COC(=O)[C@H]23)OCO4)cc(OC)c1O [Etoposide] + Cc1nc(NC(=O)N2CCC[C@H]2C(N)=O)sc1-c1ccnc(C(C)(C)C(F)(F)F)c1 [Alpelisib] (partner 2 µM)
# Method in brief: as §1
# Bleomycin + Pictilisib = compound: CC1=C(N=C(N=C1N)[C@H](CC(=O)N)NC[C@@H](C(=O)N)N)C(=O)N[C@@H]([C@H](C2=CN=CN2)OC3C(C(C(C(O3)CO)O)O)OC4C(C(C(C(O4)CO)O)OC(=O)N)O)C(=O)N[C@H](C)[C@H]([C@H](C)C(=O)N[C@@H]([C@@H](C)O)C(=O)NCCC5=NC(=CS5)C6=NC(=CS6)C(=O)NCCC[S+](C)C)O [Bleomycin] + CS(=O)(=O)N1CCN(Cc2cc3nc(-c4cccc5[nH]ncc45)nc(N4CCOCC4)c3s2)CC1 [Pictilisib] (partner 1 µM); conditions: main component drawn
# Method in brief: as §1
Cell Line,relative viability (Etoposide + Lapatinib; first compound 0.01 µM),relative viability (Etoposide + Lapatinib; first compound 0.03162 µM),relative viability (Etoposide + Lapatinib; first compound 0.1 µM),relative viability (Etoposide + Lapatinib; first compound 0.3162 µM),relative viability (Etoposide + Lapatinib; first compound 1 µM),relative viability (Bleomycin + Lapatinib; first compound 0.01 µM),relative viability (Bleomycin + Lapatinib; first compound 0.03162 µM),relative viability (Bleomycin + Lapatinib; first compound 0.1 µM),relative viability (Bleomycin + Lapatinib; first compound 0.3162 µM),relative viability (Bleomycin + Lapatinib; first compound 1 µM),relative viability (Etoposide + Alpelisib; first compound 0.01 µM),relative viability (Etoposide + Alpelisib; first compound 0.03162 µM),relative viability (Etoposide + Alpelisib; first compound 0.1 µM),relative viability (Etoposide + Alpelisib; first compound 0.3162 µM),relative viability (Etoposide + Alpelisib; first compound 1 µM),relative viability (Bleomycin + Pictilisib; first compound 0.01 µM),relative viability (Bleomycin + Pictilisib; first compound 0.03162 µM),relative viability (Bleomycin + Pictilisib; first compound 0.1 µM),relative viability (Bleomycin + Pictilisib; first compound 0.3162 µM),relative viability (Bleomycin + Pictilisib; first compound 1 µM)
HCC-44,0.989,0.953,1.06,0.833,0.245,0.648,0.429,0.228,0.193,0.145,0.635,0.89,0.857,0.569,0.323,0.385,0.477,0.271,0.211,0.246
HCC-827,0.172,0.262,0.205,0.208,0.134,0.197,0.204,0.187,0.173,0.15,0.967,0.912,0.696,0.453,0.18,0.921,0.787,0.916,0.512,0.399
NCI-H2405,1.16,1.24,0.746,0.77,0.275,0.836,1.01,0.889,0.357,0.262,0.714,0.801,0.482,0.582,0.34,0.45,0.417,0.42,0.254,0.202
PC-3 [JPC-3],0.432,0.487,0.344,0.475,0.374,0.455,0.422,0.473,0.364,0.314,0.946,1.05,0.833,0.984,0.777,0.681,0.681,0.768,0.569,0.466
NCI-H1651,0.753,0.774,0.614,0.199,0.121,0.75,0.653,0.595,0.229,0.149,0.844,0.833,0.984,0.511,0.24,0.576,0.517,0.44,0.249,0.153
HARA,0.591,0.811,0.675,0.56,0.134,0.764,0.734,0.704,0.644,0.308,0.649,0.854,0.792,0.584,0.167,0.333,0.557,0.428,0.27,0.184
NCI-H1650,0.696,0.781,0.479,0.217,0.144,0.535,0.321,0.235,0.147,0.16,,,,,,0.408,0.318,0.255,0.139,0.125
NCI-H1395,0.907,1.09,0.969,0.836,0.74,0.965,0.841,0.711,0.417,0.397,1.02,1.14,0.773,0.798,0.69,0.579,0.6,0.476,0.686,0.489
NCI-H2087,,0.83,0.912,0.551,0.278,0.642,0.97,0.798,0.301,0.235,,0.985,1.01,0.512,0.255,0.766,0.874,0.775,0.236,0.247
LU99A,1.09,1.18,0.521,0.347,0.167,0.58,0.742,0.271,0.138,0.108,0.522,0.629,0.331,0.24,0.143,0.249,0.233,0.191,0.152,0.137
NCI-H1355,1.09,1.03,0.472,0.775,0.248,0.901,1.15,0.837,0.337,0.257,0.811,0.969,0.343,0.53,0.304,0.425,0.458,0.358,0.214,0.214
HCC-78,1.03,0.836,0.206,0.134,0.202,0.64,0.918,0.549,0.429,0.215,0.316,0.354,0.212,0.213,0.161,0.201,0.213,0.204,0.199,0.159
NCI-H1563,0.935,0.868,0.817,0.646,0.526,0.698,0.76,0.705,0.611,0.52,0.855,0.918,0.868,0.588,0.557,0.608,0.698,0.623,0.574,0.533
HCC-15,0.849,0.832,0.846,0.329,0.152,0.808,0.801,0.806,0.299,0.223,0.894,0.898,0.721,0.333,0.122,0.685,0.693,0.627,0.199,0.219
EKVX,0.195,0.197,0.153,0.159,0.143,0.211,0.209,0.187,0.127,0.166,0.693,0.974,0.584,0.693,0.343,0.422,0.39,0.376,0.212,0.189
